Data published in patent publication US7033829B2, “Method to inhibit cell growth using oligonucleotides” (Trustees of Boston University, priority 2000, dated 2006).
{P} = phosphate

What was measured:
[1] = system: Jurkat cells; test: FACS cell cycle / apoptosis analysis of Jurkat cells; format: cell-based, human
Experimental: Oligonucleotides homologous to the telomere overhang repeat sequence (TTAGGG; SEQ ID NO:11), sequence (11mer-1: pGTTAGGGTTAG; SEQ ID NO: 5), complementary to this sequence (11mer-2: pCTAACCCTAAC; SEQ ID NO: 9) and unrelated to the telomere sequence (11mer-3: pGATCGATCGAT; SEQ ID NO: 10) were added to cultures of Jurkat cells, a line of human T cells, one of the cell types reported to undergo apoptosis in response to telomere disruption. Within 48 hours, 50% of the cells treated with 40 μM of SEQ ID NO: 5 had accumulated in the S phase, compared to 25–30% for control cells (p<0.0003, non-paired t-test; see FIGS. 19A–19D), and by 72 hours, 13% of these cells were apoptotic as determined by a sub-G0/G1 DNA content, compared to 2–3% of controls (p<0.007, non-paired t-test; see FIGS. 19E–19H). At 96 hours, 20±3% of the 11mer-1 treated cells were apoptotic compared with 3–5% of controls (p<0.0001, non-paired t-test). To exclude preferential uptake of the 11mer-1 as an explanation of its singular effects, Jurkat cells were treated with oligonucleotides labeled on the 3′ end with fluorescein phosphoramidite, then subjected to confocal microscopy and FACS analysis. The fluorescence intensity of the cells was the same after all treatments at 4 hours and 24 hours.
Three DNA oligonucleotides were designed initially: one homologous to the telomere overhang (11mer-1: pGTTAGGGTTAG; SEQ ID NO:5), one complementary to this sequence (11mer-2: pCTAACCCTAAC; SEQ ID NO:9) and one unrelated (11mer-3: pGATCGATCGAT; SEQ ID NO:10). For later experiments, additional 11 base oligonucleotides were designed: one a simple permutation of 11mer-1 (pGGGTTAGGGTT; SEQ ID NO:13), one with the same number of G residues but roughly 50% rather than 100% homology to the overhang (pTAGATGTGGTG; SEQ ID NO:14), and one with roughly 50% overhang homology but also containing cytosine bases (pCGGGCTTATTG; SEQ ID NO:15) (Midland Certified Reagent Company, Midland, Tex.). Cell Sources and Culture Human neonatal fibroblasts were established and cultured as previously described (Eller, M. S., et al., 1997, Proc Natl Acad Sci USA 94: 12627–12632). Fibroblasts from a Nijmegen breakage syndrome (NBS) patient (#GM07166) and an age-matched control (GM03399) were purchased from the NIGMS Human Cell Repository, Coriell Institute for Medical Research, Camden, N.J.) and cultured in DMEM/15% FBS. Saos-2 cells were purchased from the American Type Culture Collection (ATCC; Manassas, Va.). SCC12F cells were the kind gift of Dr. James Rheinwald, Harvard University. Cell Cycle Analysis The established line of human T lymphocytes, termed Jurkat cells (180,000 cells/ml) were plated in RPMI medium 1640 supplemented with 3% FBS (both from GIBCO/BRL, Gaithersburg, Md.). […] Cells were collected up to 96 hours after treatment, stained with propidium iodide and analyzed by FACS using a Becton-Dickinson FacsScan and CellQuest software. Caspase Activity
Oligonucleotides homologous to the 3′ overhang sequence (11mer-1: pGTTAGGGTTAG; SEQ ID NO:5), complementary to this sequence (11mer-2: pCTAACCCTAAC; SEQ ID NO:9) and unrelated to the telomere sequence (11mer-3: pGATCGATCGAT; SEQ ID NO:10) were synthesized. The three 11mer oligonucleotides were added to cultures of Jurkat cells, an established line of human T lymphocytes, a cell type reported to undergo apoptosis in response to telomere disruption [Karlseder, J., et al, (1999) Science 283, 1321–1325] and DNA damaging ionizing radiation (IR) [Vigorito, E., et al, (1999), Hematol Cell Ther 41, 153–161]. Duplicate cultures of Jurkat cells were treated with a final concentration of 40 μM 11mer-1, -2 or -3, oligonucleotides, or an equal volume of diluent (water) as a control. Cells were collected up to 96 hours after treatment, stained with propidium iodideandanalyzed by FACS. See also Example 13 and FIGS. 19A–19H.
To further confirm the specificity of these responses to the telomere overhang sequence, three variations were tested. […]

[2] = system: S91 cells; test: Cellular uptake of FAM-labeled oligonucleotides in S91 cells; format: in vitro ADME, mouse; conditions: 4 hours
Experimental: Fluorescein phosphoramidite (FAM) labeled oligonucleotides were added to cultures of S91 cells for 4 hours and the cells were then prepared for confocal microscopy. Nuclei, identified by staining with propidium iodide, appeared red and FAM-labeled oligonucleotides appeared green. Co-localization of red and green signals was assigned a yellow color by the computer. […] There was no change in the profile of oligonucleotide uptake after 6 and 24 hours.

[3] = system: Cloudman S91 mouse melanoma cells; test: Melanin content of Cloudman S91 melanoma cells; format: cell-based; conditions: for increase in melanin content: variations of the 9-mer, cells not given; for melanogenic activity: with 5′ phosphate, FIG. 18
Experimental: (§1) The induction of melanogenesis in Cloudman S91 mouse melanoma cells by a five-nucleotide oligomer CATAC (SEQ ID NO: 6) and a nine-nucleotide oligomer, GAGTATGAG (SEQ ID NO: 1) was examined. Duplicates of Cloudman S91 murine melanoma cells were incubated with either 100 μM oligo or an equal volume of diluent (H2O) for 5 days. The cells were then collected, counted, and an equal number of cells were pelleted for melanin analysis. […] Variations of this oligonucleotide were evaluated: a scrambled 9-mer (TAGGAGGAT; SEQ ID NO: 2) and two truncated versions, a 7-mer (AGTATGA; SEQ ID NO: 3) and second 5-mer (GTATG; SEQ ID NO: 4). […] The truncated versions (SEQ ID NOs: 3 and 4) were also active, inducing 640% and 670% increases, respectively.
Cultures of Cloudman S91 murine melanoma cells were treated for 5 days with SEQ ID NO: 1, SEQ ID NO: 6, pTpT as a positive control, or an equal volume of diluent as a negative control. […] SEQ ID NO: 6 produced a slight increase in melanin, to 165+/−77% of control levels. SEQ ID NO: 1 stimulated melanin content to an average of 600+/−260% of control levels.
pTpT, shown previously to stimulate pigmentation in these cells, was used as a reference treatment, and diluent alone was used as a negative control. After five days of treatment with the oligonucleotides, the cells were collected, counted, and an equal number of cells were pelleted for melanin analysis. […] SEQ ID NO: 5, representing the telomere over-hang sequence, also at 10 μM, increased the melanin level to 10 times that of control cells.
S91 cells were cultured in the presence of diluent alone, pTpT p9mer (SEQ ID NO: 1), p7mer (AGTATGA; SEQ ID NO: 7) or p5mer #2 (SEQ ID NO: 4). […] Both SEQ ID NOS: 4 and 7 stimulated a 7–8 fold increase in melanin.
S91 cells were cultured for 5 days in the presence of the thymidine dinucleotides or SEQ ID NO: 1 with or without a 5′ phosphate or diluent alone as a negative control.
Cultures of S91 mouse melanoma cells (100,000 cells/38 cm^2) were treated with 100 μM pTpT or phosphorothioate pTpT (pTspT) (FIG. 22) or 40 μM 11mer-1 or the phosphorothioate 11mer-1 (11mer-1-S) (FIG. 23) for 6 days and were then collected, counted and assayed for melanin content.
Duplicate cultures of S91 cells (100,000 cells/39 cm^2) were either sham-irradiated or irradiated with 5 mJ/cm^2 solar-simulated light from a 1 kW xenon arc solar-simulator (XMN 1000-21, Optical Radiation, Azuza, Calif.) metered at […] using a research radiometer (model IL1700A, International Light, Newburyport, Mass.). Two sham-irradiated plates were then supplemented with 100 μM pTspT and two irradiated cultures were similarly treated with pTspT. After one week, cells were collected, counted and analyzed for melanin content by dissolving the cell pellets in 1 N NaOH and measuring the optical density at […]. […] However, this response was blocked by the addition of pTspT (FIG. 24). In addition, the constitutive pigmentation of these cells was reduced by the pTspT in the sham-irradiated cultures, similar to the data presented in FIGS. 22 and 23.

[4] = system: p21/Waf 1/Cip 1 gene; test: p21 mRNA Northern blot in SCC12F cells; format: cell-based, human; conditions: 48 hours
Experimental: as §1
(§2) pTpT was previously found to inhibit cell cycle progression, at least in part through activation of p53 and subsequent upregulation of the cyclin dependent kinase inhibitor p21. Cultures of the human keratinocyte line SCC12F were treated with pTpT, SEQ ID NO: 1, SEQ ID NO: 6 or diluent alone as a negative control, collected and counted 48 hours later and processed for northern blot analysis of p21 mRNA expression. […] Thus, the sequences of the present invention activate p53 and inhibit cell proliferation similar to the effect of pTpT.

[5] = system: Human squamous carcinoma cell line SCC12F cells; test: Cell growth / cell yield of SCC12F cells (Coulter counter); format: cell-based; conditions: after 2 days; FIG. 14
Experimental: Human squamous carcinoma cell line SCC12F cells were maintained in primary keratinocyte medium (300 ml DME, 100 ml F-12 nutrient supplement, 50 ml 10× adenine, 50 ml fetal bovine serum, 5 ml penicillin/streptomycin stock, and 0.5 ml of 10 μg/ml epidermal growth factor and hydrocortisone to final concentration of 1.4 μg/ml) and dosed with either water (diluent), 100 μM pTpT (T2, Midland Certified Reagent Company, Midland, Tex.) or 100 μM pdApdA (A2). Cells were harvested before dosing (day 0), and 1, 3, 4, and 5 days after dosage, and were counted by Coulter™ counter. After harvesting, the cells were processed for total RNA isolation and were analyzed by Northern blot. Addition of a control deoxyadenine dinucleotide (pdApdA), a compound very similar to pTpT but not readily dimerized by UV irradiation, and therefore rarely excised during the course of UV-induced DNA repair, has no effect.
In a second experiment, SCC12F cells were cultured as described above. Two or three days after seeding, the preconfluent cultures were given fresh medium supplemented with either 100 μM T2 or diluent as a control. Cells were collected daily by trypsinization and counted by Coulter™ counter. The cell yield in cultures treated with T2 was reduced by […] compared to that of paired control cultures after five days (FIG. 2). This corresponds to 2.3 population doublings in this time for control cells, compared with 1 doubling for T2-treated cells.
as §2
Exposure of keratinocytes to UVB irradiation affects the expression of genes involved in cell cycle arrest, DNA repair and cytokine production. Single-stranded oligonucleotides sharing sequence homology with the telomere 3′ overhang, when introduced into cells, mimic these UV effects. To identify other genes that may be similarly modulated, cells of keratinocyte origin (SCC12F; a human epidermal squamous cell carcinoma line provided by Dr. James Rheinwald of Harvard University) were exposed to solar simulated irradiation (SSR) (20 mJ/cm^2, measured at 285±5 nm), to an 11-base oligonucleotide (pGTTAGGGTTAG; SEQ ID NO:5) homologous to the telomere overhang (T-oligo), or to a complementary sequence as control [pCTAACCCTAAC; (SEQ ID NO:9) control oligonucleotide]. […] These are mitochondrial-transcribed genes whose encoded proteins participate in cellular respiration.

In the case of “pTAGATGTGGTG (DNA, 5' {P}, backbone not given here) [SEQ ID NO:14]”, the “apoptotic cells by FACS analysis” value ([1]; 10 μM, 72 hours) is reported as 10% and the “apoptotic cells by FACS analysis” value ([1]; 10 μM, 96 hours) is reported as 16%.
For “pCGGGCTTATTG (DNA, 5' {P}, backbone not given here) [SEQ ID NO:15, reference compound]”, the “apoptosis and S-phase arrest” value ([1]; 10 μM) was “failed to induce apoptosis and only induced a moderate S-phase arrest”, the “apoptotic cells by FACS analysis” value ([1]; 10 μM, 72 hours) was 2% and the “apoptotic cells by FACS analysis” value ([1]; 10 μM, 96 hours) was 2–4%.
For “GAGTATGAG (DNA, phosphodiester; further chemistry not fully specified) [SEQ ID NO: 1 without 5′ phosphorylation]”, the “cellular uptake and localization (confocal microscopy, FACS)” value [2] was “only moderate uptake”.
In the case of “pGCATGCATGCATTACGTACG (DNA, 5' {P}, backbone not given here) [SEQ ID NO: 8]”, the “pigmentation relative to control cells” value ([3]; FIG. 16) is reported as “twice the level of control cells” and the “cellular uptake and localization (confocal microscopy, FACS)” value [2] is reported as “pattern of fluorescence very similar to that seen with phosphorylated SEQ ID NO: 1”.
With pGGGTTAGGGTT [SEQ ID NO:13] the “apoptotic cells by FACS analysis” value ([1]; 10 μM, 72 hours) was 13%, the “apoptotic cells by FACS analysis” value ([1]; 10 μM, 96 hours) was 28% and the “activity of the two complete telomere overhang homologs” value ([1]; separate paired cultures) was “equal in activity”.
With pTspT the melanogenesis ([3]; 100 μM dinucleotides or 40 μM 11mers, 6 days) was “did not”, the constitutive pigmentation ([3]; 100 μM pTspT or 40 μM 11mer-1-S, 6 days or one week) was “reduced the constitutive pigmentation” and the “UV-induced doubling of melanin content” value ([3]; 100 μM, 5 mJ/cm^2 solar-simulated light, one week) was “blocked”.
For “AGTATGA (DNA, phosphodiester; further chemistry not fully specified) [SEQ ID NO: 3]”, the “increase in melanin content” value [3] was 640%.
In the case of “TAGGAGGAT (DNA, phosphodiester; further chemistry not fully specified) [SEQ ID NO: 2]”, the “increase in melanin content” value [3] is reported as 800%.
With “CATAC (DNA, phosphodiester; further chemistry not given here) [SEQ ID NO: 6]” the “pigment content increase, of control levels” value ([3]; 100 μM, 5 days, three experiments) was 61%±60%, the “melanin content, of control cells” value ([3]; 5 days, FIG. 12) was 165+/−77% and the “increase in p21 mRNA level” value [4] was 10–20%. For the same substance, the “reduction of cell number” value [5] was 25%.
In the case of “TTAGGG (Synthetic DNA Fragment) [SEQ ID NO: 11]”, the melanogenic activity [3] is reported as “highly melanogenic”.
With “CCCTAA (DNA, backbone not given here) [SEQ ID NO: 12]” the melanogenic activity [3] was “less active”.
For “GTATG (DNA, phosphodiester; further chemistry not fully specified) [SEQ ID NO: 4]”, the “increase in melanin content” value [3] was 670%.
